Experimental data: ChEMBL document CHEMBL1201862, “PubChem BioAssay data set” (2004)
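Cells were grown in 96-well plates and exposed to each compound for 48 hours at five concentrations; endpoints were interpolated linearly between bracketing concentrations, or set to the highest concentration if not reached. GI50 = concentration required for 50% inhibition of growth.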 Calls of active or inactive are those of the source. Rule as the data show it: active = GI50 up to about 1.1 µM and inactive = higher.

Experiments:
Experiment in all cases: inhibition of tumour cell growth, NCI panel, 48 h
DMS-114 = tested on: DMS-114
KM-20L2 = tested on: KM-20L2
RXF 631 = tested on: RXF 631
DMS-273 = tested on: DMS-273
HOP-18 = tested on: HOP-18
LXFL 529 = tested on: LXFL 529
DLD-1 = tested on: DLD-1
SNB-78 = tested on: SNB-78
XF498 = tested on: XF498

Row | Compound | GI50 (DMS-114) | GI50 (KM-20L2) | GI50 (RXF 631) | GI50 (DMS-273) | GI50 (HOP-18) | GI50 (LXFL 529) | GI50 (DLD-1) | GI50 (SNB-78) | GI50 (XF498)
1 | C#CCN(Cc1ccc2nc(-c3ccccc3)c(Cl)nc2c1)c1cc(OC)c(OC)c(OC)c1 | 14.3 µM (inactive) | > 100 µM (inactive) | > 100 µM (inactive) | 99.5 µM (inactive) | > 100 µM (inactive) | > 100 µM (inactive) | > 100 µM (inactive) | > 100 µM (inactive) | –
2 | COC(=O)C(C)Oc1ccc(O)cc1 (stereo unspecified) | 19.6 µM (inactive) | > 100 µM (inactive) | > 100 µM (inactive) | > 100 µM (inactive) | > 100 µM (inactive) | > 100 µM (inactive) | > 100 µM (inactive) | > 100 µM (inactive) | –
3 | C1CN2N3CCCC23C1 (stereo unspecified) | > 100 µM (inactive) | > 100 µM (inactive) | – | > 100 µM (inactive) | > 100 µM (inactive) | > 100 µM (inactive) | > 100 µM (inactive) | > 100 µM (inactive) | > 100 µM (inactive)
4 | COC[n+]1cc2cc(OC)c(OC)cc2c2ccc3cc(OC)c(OC)cc3c21 | > 100 µM (inactive) | > 100 µM (inactive) | > 100 µM (inactive) | – | > 100 µM (inactive) | > 100 µM (inactive) | > 100 µM (inactive) | > 100 µM (inactive) | –
5 | CN(C)CC(/C(Cc1ccccc1)=N\NC(=O)c1ccncc1)c1ccccc1 (stereo unspecified) | 22.5 µM (inactive) | 27 µM (inactive) | 40.7 µM (inactive) | – | – | 36.1 µM (inactive) | 49.1 µM (inactive) | – | 29.4 µM (inactive)
6 | N#Cc1cccnc1Cl | > 100 µM (inactive) | > 100 µM (inactive) | > 100 µM (inactive) | > 100 µM (inactive) | > 100 µM (inactive) | > 100 µM (inactive) | > 100 µM (inactive) | > 83.4 µM (inactive) | > 100 µM (inactive)
7 | O=C1Cc2ccccc2N1/N=C\c1ccc(O)cc1 | 21.8 µM (inactive) | > 100 µM (inactive) | > 100 µM (inactive) | > 100 µM (inactive) | > 100 µM (inactive) | – | – | > 100 µM (inactive) | > 100 µM (inactive)
8 | O=C1C=Cc2noc3cccc1c23 | 2.07 µM (inactive) | 15.5 µM (inactive) | 13.8 µM (inactive) | 6.61 µM (inactive) | 18.7 µM (inactive) | 1.94 µM (inactive) | 1.66 µM (inactive) | 2.86 µM (inactive) | –
9 | O=C(/C=C/c1ccccc1O)c1ccc([N+](=O)[O-])cc1 | 10.3 µM (inactive) | 18.8 µM (inactive) | 18.7 µM (inactive) | 15.2 µM (inactive) | 30.1 µM (inactive) | 13.4 µM (inactive) | 12.9 µM (inactive) | 20.9 µM (inactive) | 16.9 µM (inactive)
10 | CC(C)COC(=O)c1ccc(/N=C\c2ccc(/C=N/c3ccc(C(=O)OCC(C)C)cc3)cc2)cc1 | – | > 100 µM (inactive) | > 100 µM (inactive) | > 100 µM (inactive) | – | > 100 µM (inactive) | > 100 µM (inactive) | > 100 µM (inactive) | > 100 µM (inactive)
11 | COc1cc(/C=C(\NC(=O)c2ccccc2)c2nc3cncnc3[nH]2)cc(OC)c1OC | – | > 100 µM (inactive) | > 100 µM (inactive) | > 100 µM (inactive) | – | > 100 µM (inactive) | > 100 µM (inactive) | > 100 µM (inactive) | > 100 µM (inactive)
12 | Cc1ccc2nc(NC(=O)C(=O)C(C#N)c3ccc(Cl)cc3)sc2c1 (stereo unspecified) | > 50 µM (inactive) | > 50 µM (inactive) | – | > 50 µM (inactive) | 0.265 µM (active) | > 50 µM (inactive) | – | > 50 µM (inactive) | > 50 µM (inactive)
13 | NCCNC(=O)c1cccc2cc3ccccc3nc12 | 1.77 µM (inactive) | 1.61 µM (inactive) | 4.47 µM (inactive) | 2.3 µM (inactive) | 14.7 µM (inactive) | 4.95 µM (inactive) | 2.77 µM (inactive) | 8.63 µM (inactive) | 2.04 µM (inactive)
14 | O=C(CC1=Nc2nnc(-c3nnc4n3C(=O)C(CC(=O)C3CC3)=N4)n2C1=O)C1CC1 | > 100 µM (inactive) | > 100 µM (inactive) | – | > 100 µM (inactive) | – | > 100 µM (inactive) | > 100 µM (inactive) | > 100 µM (inactive) | –
15 | CNc1nc(N)cc(O)n1 | > 100 µM (inactive) | > 100 µM (inactive) | – | > 100 µM (inactive) | – | > 100 µM (inactive) | > 100 µM (inactive) | > 100 µM (inactive) | –
16 | COc1cc([C@@H]2c3cc4c(cc3[C@@H](OC(=O)c3ccccc3)C3COC(=O)[C@@H]32)OCO4)cc(OC)c1O (stereo partly specified) | < 0.01 µM (active) | 0.0128 µM (active) | < 0.01 µM (active) | < 0.01 µM (active) | > 100 µM (inactive) | < 0.01 µM (active) | – | – | –
17 | CC(C)Cc1ccc(C(C)/C=C2\CCC(CN(C)C)C2=O)cc1 (stereo unspecified) | 19.2 µM (inactive) | 24.3 µM (inactive) | – | – | 17.6 µM (inactive) | 9.35 µM (inactive) | 10.7 µM (inactive) | 17.5 µM (inactive) | 20 µM (inactive)
18 | O=C(CCc1ccccc1)On1nnc2ccccc2c1=O | > 100 µM (inactive) | > 100 µM (inactive) | – | > 100 µM (inactive) | – | > 100 µM (inactive) | > 100 µM (inactive) | > 100 µM (inactive) | –
19 | CC(=O)OCC(=O)[C@@]1(O)CC[C@H]2[C@@H]3C[C@H](C)C4=CC(=O)C=C[C@]4(C)[C@@]3(F)[C@@H](O)C[C@@]21C | > 100 µM (inactive) | > 100 µM (inactive) | > 100 µM (inactive) | > 100 µM (inactive) | – | – | > 100 µM (inactive) | > 100 µM (inactive) | > 100 µM (inactive)
20 | CCOC(=O)C(=O)C=P(c1ccccc1)(c1ccccc1)c1ccccc1 | > 100 µM (inactive) | > 100 µM (inactive) | > 100 µM (inactive) | > 100 µM (inactive) | > 100 µM (inactive) | > 100 µM (inactive) | > 100 µM (inactive) | > 100 µM (inactive) | –
21 | Cc1c(C(=O)/C=C/c2cccc3ccccc23)[n+]([O-])c2ccccc2[n+]1[O-] | 4.85 µM (inactive) | 14.6 µM (inactive) | 18.1 µM (inactive) | 11.7 µM (inactive) | 14.4 µM (inactive) | 8.02 µM (inactive) | 10.6 µM (inactive) | 6.84 µM (inactive) | –
22 | O=[PH](O)c1ccccn1 | > 100 µM (inactive) | > 100 µM (inactive) | – | > 100 µM (inactive) | – | > 100 µM (inactive) | > 100 µM (inactive) | > 100 µM (inactive) | > 100 µM (inactive)
23 | CCOc1ccc(-c2oc(/C=N/NS(=O)(=O)c3ccc(C)cc3)c([N+](=O)[O-])c2-c2ccc(OCC)cc2)cc1 | 3.21 µM (inactive) | 11.2 µM (inactive) | – | 8.41 µM (inactive) | – | 9.93 µM (inactive) | 4.98 µM (inactive) | 9.73 µM (inactive) | –
24 | COc1ccc(OC)c(N2CC(N)C2=O)c1 (stereo unspecified) | – | > 100 µM (inactive) | > 100 µM (inactive) | > 100 µM (inactive) | > 100 µM (inactive) | – | – | – | > 100 µM (inactive)
25 | O=C1c2ccccc2C(=O)c2c1ccc(O)c2O [ATHRAQUINONES A] | – | – | – | 35.9 µM (inactive) | – | 43.2 µM (inactive) | 43.4 µM (inactive) | – | 39.1 µM (inactive)
